Tests used:
Uncinula necator = assay: Fungicidal test, Uncinula necator (UNCINE) on vines, PRCO; format: in vivo; details: METHOD 2 (unbanded)
Puccinia recondita = assay: Fungicidal test, Puccinia recondita (PUCCRT) on wheat, PRCO; format: in vivo; details: METHOD 2 (unbanded)
Meloidogyne incognita = assay: Nematode test, J2 infective juveniles of Meloidogyne incognita, mortality; details: 12.5 ppm; J2 infective juveniles suspended in solution; mortality after three days
Pyricularia oryzae = format: in vivo; details: METHOD 2 (unbanded)
Venturia inaequalis = assay: Fungicidal test, Venturia inaequalis (VENTIN) on apples, PRCO; format: in vivo; details: METHOD 2 (unbanded)
[1] = tested on: Erysiphe graminis f.sp. tritici; assay: Fungicidal test, Erysiphe graminis f.sp. tritici (ERYSGT) on wheat, PRCO; format: in vivo; details: 1 d Prot/Foir; METHOD 2 (unbanded)
Musca domestica = details: 500 ppm by weight; knockdown assessed 15 minutes after treatment
Septoria nodorum = assay: Fungicidal test, Septoria nodorum (LEPTNO) on wheat, PRCO; format: in vivo; details: METHOD 2 (unbanded)
[2] = tested on: Phytophthora infestans lycopersici; format: in vivo; details: METHOD 2 (unbanded)

| SMILES | UNCINE 1 d Prot/Foir PRCO (Uncinula necator) | PUCCRT 1 d Prot/Foir PRCO (Puccinia recondita) | MELGIN = Meloidogyne incognita, grading of mortality (score) (Meloidogyne incognita) | PYRIOR 1 d Prot/Foir PRCO (Pyricularia oryzae) | VENTIN 1 d Prot/Foir PRCO (Venturia inaequalis) | ERYSGT 1 d Prot/Foir PRCO [1] | MUSCDO AC = Musca domestica (knockdown), score (Musca domestica) | LEPTNO 1 d Prot/Foir PRCO (Septoria nodorum) | PHYTIN 1 d Prot/Foir PRCO [2] |
| --- | --- | --- | --- | --- | --- | --- | --- | --- | --- |
| CCN(C)c1nc2cc(CC(=O)Nc3snc(C)c3Cl)ccc2o1 [180(A3)] | 42 | 69 | 0 (0 indicates less than 40% mortality) | 42 | 0 | 29 | 0 (0 indicates less than 40% mortality) | 14 | – |
| COc1nc2cc(CC(=O)Nc3snc(C)c3Cl)ccc2o1 [203(A3)] | 69 | 100 | 0 (0 indicates less than 40% mortality) | 96 | 65 | 98 | 9 (9 indicates 80-100% mortality) | −3 | 85 |
| Cc1nsc(NC(=O)Cc2ccc3oc(CC(C)(C)C)nc3c2)c1Br [15(A4)] | 100 | 99 | 0 (0 indicates less than 40% mortality) | 98 | 54 | 91 | 9 (9 indicates 80-100% mortality) | 19 | 100 |
| Cc1nc2ccc(CC(=O)Nc3snc(C)c3Cl)cc2[nH]1 [2(A43)] | 11 | 7 | 5 (5 indicates 40-79% mortality) | 48 | 14 | 20 | 0 (0 indicates less than 40% mortality) | −3 | 18 |
| CCCc1nc2cc(CC(=O)Nc3snc(C)c3Cl)ccc2s1 [4(A13)] | 100 | 100 | 0 (0 indicates less than 40% mortality) | 100 | 55 | 100 | 9 (9 indicates 80-100% mortality) | 20 | – |
| CCN(C(=O)Cc1ccc2oc(CC(C)(C)C)nc2c1)c1snc(C)c1Cl [15(C3)] | 100 | 13 | 0 (0 indicates less than 40% mortality) | 7 | 64 | 38 | 9 (9 indicates 80-100% mortality) | 93 | 97 |
| Cc1nsc(NC(=O)Cc2ccc3oc(CC#N)nc3c2)c1Cl [113(A3)] | 21 | 41 | 0 (0 indicates less than 40% mortality) | 28 | 8 | 5 | 0 (0 indicates less than 40% mortality) | 20 | 38 |
| Cc1nsc(NC(=O)Cc2ccc3nc(C(C)(C)C)[nH]c3c2)c1Cl [9(A43)] | 7 | 25 | 0 (0 indicates less than 40% mortality) | 26 | 38 | 7 | 0 (0 indicates less than 40% mortality) | −4 | 0 |
| CCc1nsc(NC(=O)Cc2ccc3oc(C)nc3c2)c1Cl [2(A8)] | 74 | 100 | 0 (0 indicates less than 40% mortality) | 75 | 8 | 54 | – | 9 | 74 |
| Cc1nsc(NC(=O)Cc2ccc3oc(C(C)C#N)nc3c2)c1Cl (racemic) [115(A3)] | 2 | 45 | 0 (0 indicates less than 40% mortality) | 5 | 15 | −3 | – | 8 | – |
| Cc1nsc(N(CC(F)(F)F)C(=O)Cc2ccc3oc(CC(C)(C)C)nc3c2)c1Cl [15(H3)] | 63 | 29 | 0 (0 indicates less than 40% mortality) | 46 | 0 | 16 | – | 2 | – |
| Cc1nc2cc(CC(=O)Nc3snc(C)c3C#N)ccc2o1 [2(A5)] | 3 | 28 | 5 (5 indicates 40-79% mortality) | 31 | 19 | 18 | – | −2 | 19 |
| CCC(Cl)c1nc2cc(CC(=O)Nc3snc(C)c3Cl)ccc2o1 (racemic) [95(A3)] | 100 | 100 | 0 (0 indicates less than 40% mortality) | 96 | 98 | 68 | – | 8 | – |
| CCc1nsc(NC(=O)Cc2ccc3oc(CC(C)(C)C)nc3c2)c1Cl [15(A8)] | 100 | – | 0 (0 indicates less than 40% mortality) | 81 | 24 | 80 | – | −2 | 99 |
| Cc1nsc(NC(=O)Cc2ccc3oc(C(F)(F)F)nc3c2)c1Cl [75(A3)] | 53 | 94 | 0 (0 indicates less than 40% mortality) | 78 | 15 | 90 | – | 27 | – |
| Cc1nsc(NC(=O)Cc2ccc3oc(-c4c(F)c(F)c(F)c(F)c4F)nc3c2)c1Cl [287(A3)] | 20 | 94 | 0 (0 indicates less than 40% mortality) | 19 | 8 | 34 | – | −2 | 3 |
| Cc1nsc(NC(=O)Cc2ccc3oc(CC(C)(C)C)nc3c2)c1C#N [15(A5)] | 83 | 84 | 0 (0 indicates less than 40% mortality) | 81 | 3 | 15 | – | −2 | 45 |
| Cc1nsc(NC(=O)Cc2ccc3oc(C4CC4)nc3c2)c1Cl [21(A3)] | 44 | 100 | 0 (0 indicates less than 40% mortality) | 92 | 50 | 35 | – | 14 | – |

Reference: patent US6544989B2, “Benzazoles: benzoxazole, benzthiazole and benzimidazole derivatives” (Syngenta Limited, priority 1998, dated 2003)
